Reference: patent publication US20260060982A1, “USE OF BTK INHIBITOR AND SINGLE-DOSE DRUG” (HUBEI BIO-PHARMACEUTICAL INDUSTRIAL TECHNOLOGICAL INSTITUTE …, priority 2023, published 2026)

Columns and labels:
BTK = BTK (Homo sapiens, UniProt Q06187); experiment: Inhibition of BTK kinase activity (HTRF); type: biochemical
Protocol: The specific experimental steps were as follows:
The BTK kinase/peptide mix solution was added to the assay plate at 5 μL per well, and centrifuged at 1000 rpm for 1 min. The assay plate was incubated at 23° C. for 15 min.
C. An ATP solution (3968 μL of 1.33× kinase reaction buffer and […] of 10 mM ATP) was prepared, added to the assay plate at 2.5 μL per well, and centrifuged at 1000 rpm for 1 min. The assay plate was incubated at 23° C. for 90 min.
The assay plate was incubated at 23° C. for 60 min and read on the Envision multilabel reader.
E. IC50 results were analyzed using XLFIT5 (Formula 205) from IDBS.

[1] = system: IgM-induced calcium signaling in RAMOS cells; experiment: Antagonism of IgM-induced calcium signaling in RAMOS cells (FLIPR); type: cell-based; details: Homo sapiens, Fluo-4D dye
Protocol: The specific test steps were as follows:
A. Ramos cells (ECACC) were seeded in a 384 experimental plate using cell culture medium (RPMI 1640 medium supplemented with 10% fetal bovine serum) at a density of 5×10^6 cells/mL, 20 μL per well.
C. The cell plate and the compound plate were placed into FLIPR. 10 μL was transferred from the compound plate by the FLIPR instrument and added to the cell plate. The cell plate was removed and incubated in a 37° C. incubator for 1 h.
D. One hour later, 40 μL of Fluo-4D dye (Life Technologies, formulated as 0.5× with 40 mL of HBSS and HEPES buffer) was added to the cell plate and incubated at 37° C. for 50 min.
E. 10 μL of IgM at 8×EC80 concentration was added, and the plate was read using FLIPR.
F. The IC50 results of the compounds were analyzed using EXCEL and Prism statistical software.

[2] = system: anti-DNP IgE-induced passive cutaneous anaphylaxis in BALB/c mice; experiment: Passive cutaneous anaphylaxis (PCA) model in mice induced with anti-DNP IgE; type: in vivo
Text: Passive cutaneous anaphylaxis test, also known as PCA reaction, is a local allergic reaction caused by antibodies that bind to the same or different animal tissues. The PCA animal model in the present disclosure was a passive sensitization model in which IgE binds to specific receptors on skin mast cells. When allergens were stimulated, local mast cells released allergic mediators, thereby increasing local vascular permeability. […] The specific steps were as follows:
The PCA model in mice was induced using anti-DNP IgE. Specifically, BALB/c mice were divided into 9 groups, namely, a normal control group (no administration, injection, or feeding of any solvent), a model group (no administration, injection, or feeding of any solvent), a prednisone group (10 mg/kg, administered for 3 consecutive days, QD (once a day), prednisone concentration of 1 mg/mL, and an administration volume of 10 mL/kg), a cetirizine group (20 mg/kg, administered for 3 consecutive days, QD, cetirizine concentration of 2 mg/mL, and an administration volume of 10 mL/kg), a low-dose group and a medium-dose group for the test substance LOU-064 (15 mg/kg and 45 mg/kg, administered for 3 consecutive days, BID (twice a day), LOU-064 concentrations of 1.5 mg/mL and 4.5 mg/mL, and an administration volume of 10 mL/kg), and a low-dose group, a medium-dose group, and a high-dose group for compound (I) (15 mg/kg, 45 mg/kg, and 90 mg/kg, administered for 3 consecutive days, BID, compound (I) concentrations of 1.5 mg/mL, 4.5 mg/mL, and 9 mg/mL, and an administration volume of 10 mL/kg), with 9 mice in each group, administered by gavage for a total of 4 days. On day 3 of the administration, anti-DNP IgE (Sigma-Aldrich) was injected into the left ears of 8 groups of mice (no normal control group), and the same volume of PBS was injected into the right ears of 8 groups and the left and right ears of the normal control group to allow it to bind to mast cells. Then, 24 hours after the fourth day of anti-DNP IgE injection, a mixed solution of antigen (DNP-HAS, Sigma) and pigment Evan's Blue (Sigma) (0.25 mL/mouse, i.v.) was injected into the tail vein (the normal control group was injected with the same volume of the mixed solution of antigen and pigment Evan's Blue). The antigen reacted with the antibody attached to the mast cells, causing a local allergic reaction, increased local vascular permeability, and pigment penetration into the tissue. The reaction intensity was determined by measuring the local pigment content 30 minutes later. The dye was extracted from the left and right ears, and the absorbance of Evan's blue was measured at a specific wavelength. […] The efficacy effects of each test substances in the PCA animal model were evaluated.

BTK, sequence (Q06187 whole entry): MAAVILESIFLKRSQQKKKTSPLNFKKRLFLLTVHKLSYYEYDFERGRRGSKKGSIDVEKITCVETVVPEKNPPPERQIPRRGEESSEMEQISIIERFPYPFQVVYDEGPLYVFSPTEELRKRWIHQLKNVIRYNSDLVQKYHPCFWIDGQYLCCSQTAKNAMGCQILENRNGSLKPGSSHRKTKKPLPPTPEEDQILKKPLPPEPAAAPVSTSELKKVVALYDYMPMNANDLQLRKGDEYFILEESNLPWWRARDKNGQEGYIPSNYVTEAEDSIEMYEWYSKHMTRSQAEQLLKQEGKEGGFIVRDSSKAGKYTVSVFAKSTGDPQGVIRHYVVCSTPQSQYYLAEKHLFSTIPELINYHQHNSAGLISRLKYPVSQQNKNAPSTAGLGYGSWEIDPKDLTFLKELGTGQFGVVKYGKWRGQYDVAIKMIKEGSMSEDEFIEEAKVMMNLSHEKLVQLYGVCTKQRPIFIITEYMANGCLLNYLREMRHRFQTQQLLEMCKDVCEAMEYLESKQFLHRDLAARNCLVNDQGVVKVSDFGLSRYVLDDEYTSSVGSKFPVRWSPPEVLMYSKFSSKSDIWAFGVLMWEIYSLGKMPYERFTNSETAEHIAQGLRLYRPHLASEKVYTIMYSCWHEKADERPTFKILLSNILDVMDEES

C=CC(=O)N1CCC[C@@H](n2nc(-c3ccc(Oc4ccccn4)cc3)c3c(N)n[nH]c(=O)c32)C1 [compound (I), (R)-1-(1-acryloylpiperidin-3-yl)-4-amino-3-(4-(pyridin-2-yloxy)phenyl)-1H-pyrazolo[3,4-d]pyridazin-7(6H)-one]
IC50 (BTK): ≤ 4 nM
IC50 [1]: 55 ± 3.34 nM
Concentration of Evan's Blue, Left ear, Average value ([2]; 15 mg/kg BID by gavage): 25.68 µg/mL
Concentration of Evan's Blue, Left ear, Average value ([2]; 45 mg/kg BID by gavage): 18.21 µg/mL
Concentration of Evan's Blue, Left ear, Average value ([2]; 90 mg/kg BID by gavage): 22.00 µg/mL
Evan's Blue content in the modeling ear compared with the model group ([2]; three dose groups (15, 45, 90 mg/kg BID)): significantly reduced
